Measurements taken from US20250084067A1, “PYRAZOLE-SUBSTITUTED CYCLOPENTANOL ESTER DERIVATIVE AND USE THEREOF” (CHIA TAI TIANQING PHARMACEUTICAL GROUP CO., LTD., priority 2022, published 2025).
Read-outs that look alike come from different tables or passages of the source.

Tests used:
[1] = target: CDK2 CycE1 kinase (Homo sapiens (Human), UniProt P24941); assay: Determination of inhibitory activity against CDK2 CycE1 kinase; type: biochemical
Experimental: CDK2 CycE1 kinase solution (concentration: 0.015 ng/μL) was added to assay wells at 6 μL/well, and different compounds dissolved in DMSO were added to the assay wells separately using a nanoliter pipettor, such that the final concentrations of the compounds were 300 nM to 0.07 nM. The wells were set in duplicate, and a control well was set. After incubation of the above system for 30 min, ATP (concentration: 50 μM or 5000 μM) was mixed with ULight-Myelin Basic Protein Peptide substrate (manufacturer: PerkinElmer, concentration: […]) at a ratio of 1:1, and the mixture was added to the assay wells at 4 μL/well. The resulting mixture was left to react at room temperature for 2 h, and then 5 μL of EDTA was added to terminate the reaction, followed by addition of 5 μL of a detection antibody (manufacturer: PerkinElmer, concentration: 8 nM). The mixture was incubated at room temperature for 1 h.

[2] = target: CDK2/CycA2 kinase (Homo sapiens (Human), UniProt P24941); assay: Determination of inhibitory activity against CDK2/CycA2 kinase; type: biochemical
Experimental: The wells were set in duplicate, and a control well was set. […] The resulting mixture was left to react at room temperature for 2 h, and then 5 µL of EDTA was added to terminate the reaction, followed by addition of 5 μL of a detection antibody (manufacturer: PerkinElmer, concentration: 8 nM). The mixture was incubated at room temperature for 1 h.

[3] = read-out: CDK2/CycE1 10 μM ATP (kinase) IC50
[4] = read-out: CDK2/CycA2 10 μM ATP (kinase) IC50

C[C@H](NC(=O)O[C@@H]1CC[C@H](c2cc(Nc3ccc4c(c3)CS(=O)(=O)C4)n[nH]2)C1)C(F)(F)F [Example 63]
IC50 [1, 3]: < 0.01 µM | IC50 [2, 4]: < 0.01 µM

C[C@@H](NC(=O)O[C@@H]1CC[C@H](c2cc(Nc3ccc4c(c3)CS(=O)(=O)C4)n[nH]2)C1)C(F)(F)F [Example 64]
IC50 [1, 3]: < 0.01 µM | IC50 [2, 4]: < 0.01 µM

CC(C)NC(=O)O[C@@H]1CC[C@H](c2cc(Nc3ccc(S(N)(=O)=O)cc3)n[nH]2)C1 [Example 65]
IC50 ([1]; 10 μM ATP): < 0.01 µM | IC50 ([2]; 10 μM ATP): < 0.01 µM

CC(C)NC(=O)O[C@@H]1CC[C@H](c2cc(Nc3ccc(S(N)(=O)=O)c(C(F)(F)F)c3)n[nH]2)C1 [Example 66]
IC50 ([1]; 10 μM ATP): < 0.01 µM | IC50 ([2]; 10 μM ATP): < 0.01 µM

O=C(NC1CC1)O[C@@H]1CC[C@H](c2cc(Nc3ccc4c(c3)CS(=O)(=O)C4)n[nH]2)C1 [Example 67]
IC50 ([1]; 10 μM ATP): < 0.01 µM | IC50 ([2]; 10 μM ATP): < 0.01 µM

CC(C)NC(=O)O[C@@H]1CC[C@H](c2cc(Nc3ccc(S(=O)(=O)NC4CC4)cn3)n[nH]2)C1 [Example 68]
IC50 ([1]; 10 μM ATP): < 0.01 µM | IC50 ([2]; 10 μM ATP): < 0.01 µM

CC(C)NC(=O)O[C@@H]1CC[C@H](c2cc(Nc3ccc(S(=O)(=O)N(C)C)cn3)n[nH]2)C1 [Example 69]
IC50 ([1]; 10 μM ATP): 0.01 to 0.05 µM | IC50 ([2]; 10 μM ATP): 0.01 to 0.05 µM

CC(C)NC(=O)O[C@@H]1CC[C@H](c2cc(Nc3ccc(S(C)(=N)=O)c(F)c3)n[nH]2)C1 (stereo partly drawn) [Example 70]
IC50 [1, 3]: < 0.01 µM | IC50 [2, 4]: < 0.01 µM

CC(C)NC(=O)O[C@@H]1CC[C@H](c2cc(Nc3ccc(NS(C)(=O)=O)c(OC(F)F)c3)n[nH]2)C1 [Example 71]
IC50 [1, 3]: < 0.01 µM | IC50 [2, 4]: < 0.01 µM

CC(C)NC(=O)O[C@@H]1CC[C@H](c2cc(Nc3ccc(C#N)cc3)n[nH]2)C1 [Example 72]
IC50 ([1]; 10 μM ATP): < 0.01 µM | IC50 ([2]; 10 μM ATP): < 0.01 µM

CC(C)NC(=O)O[C@@H]1CC[C@H](c2cc(Nc3ccc(S(C)(=N)=O)c(Cl)c3)n[nH]2)C1 (stereo partly drawn) [Example 73]
IC50 [1, 3]: < 0.01 µM | IC50 [2, 4]: < 0.01 µM

CC(C)NC(=O)O[C@@H]1CC[C@H](c2cc(Nc3ccc(NS(C)(=O)=O)c(C(F)F)c3)n[nH]2)C1 [Example 74]
IC50 [1, 3]: < 0.01 µM | IC50 [2, 4]: < 0.01 µM

CC(C)NC(=O)O[C@@H]1CC[C@H](c2cc(Nc3ccc4c(c3)S(=O)(=O)CC4)n[nH]2)C1 [Example 75]
IC50 ([1]; 10 μM ATP): < 0.01 µM | IC50 ([2]; 10 μM ATP): 0.01 to 0.05 µM

[2H]C([2H])([2H])C([2H])(NC(=O)O[C@@H]1CC[C@H](c2cc(Nc3ccc(S(N)(=O)=O)c(Cl)n3)n[nH]2)C1)C([2H])([2H])[2H] [Example 77]
IC50 ([1]; 10 μM ATP): < 0.01 µM | IC50 ([2]; 10 μM ATP): < 0.01 µM

[2H]C([2H])([2H])C([2H])(NC(=O)O[C@@H]1CC[C@H](c2cc(Nc3ccc4c(c3)CS(=O)(=O)C4)n[nH]2)C1)C([2H])([2H])[2H] [Example 78]
IC50 ([1]; 10 μM ATP): < 0.01 µM | IC50 ([2]; 10 μM ATP): < 0.01 µM
